Test results reported in BigSolDB 2.1.

CC(=NC#N)N(C)Cc1ccc(Cl)nc1
solubility (mole fraction) (in 1,4-dioxane, 288.15 K): 0.0693 | solubility (mole fraction) (in 1,4-dioxane, 293.15 K): 0.0799 | solubility (mole fraction) (in 1,4-dioxane, 298.15 K): 0.0941 | solubility (mole fraction) (in 1,4-dioxane, 303.15 K): 0.113 | solubility (mole fraction) (in 1,4-dioxane, 308.15 K): 0.132 | solubility (mole fraction) (in 1,4-dioxane, 313.15 K): 0.153 | solubility (mole fraction) (in 1,4-dioxane, 318.15 K): 0.175 | solubility (mole fraction) (in DMF, 278.15 K): 0.175 | solubility (mole fraction) (in DMF, 283.15 K): 0.201 | solubility (mole fraction) (in DMF, 288.15 K): 0.229 | solubility (mole fraction) (in DMF, 293.15 K): 0.269 | solubility (mole fraction) (in DMF, 298.15 K): 0.318 | solubility (mole fraction) (in DMF, 303.15 K): 0.368 | solubility (mole fraction) (in DMF, 308.15 K): 0.421 | solubility (mole fraction) (in DMF, 313.15 K): 0.477 | solubility (mole fraction) (in DMF, 318.15 K): 0.542 | solubility (mole fraction) (in DMSO, 293.15 K): 0.376 | solubility (mole fraction) (in DMSO, 298.15 K): 0.426 | solubility (mole fraction) (in DMSO, 303.15 K): 0.481 | solubility (mole fraction) (in DMSO, 308.15 K): 0.54 | solubility (mole fraction) (in DMSO, 313.15 K): 0.608 | solubility (mole fraction) (in DMSO, 318.15 K): 0.68 | solubility (mole fraction) (in NMP, 278.15 K): 0.197 | solubility (mole fraction) (in NMP, 283.15 K): 0.221 | solubility (mole fraction) (in NMP, 288.15 K): 0.255 | solubility (mole fraction) (in NMP, 293.15 K): 0.299 | solubility (mole fraction) (in NMP, 298.15 K): 0.352 | solubility (mole fraction) (in NMP, 303.15 K): 0.405 | solubility (mole fraction) (in NMP, 308.15 K): 0.46 | solubility (mole fraction) (in NMP, 313.15 K): 0.523 | solubility (mole fraction) (in NMP, 318.15 K): 0.589 | solubility (mole fraction) (in acetone, 278.15 K): 0.104 | solubility (mole fraction) (in acetone, 283.15 K): 0.118 | solubility (mole fraction) (in acetone, 288.15 K): 0.138 | solubility (mole fraction) (in acetone, 293.15 K): 0.162 | solubility (mole fraction) (in acetone, 298.15 K): 0.191 | solubility (mole fraction) (in acetone, 303.15 K): 0.226 | solubility (mole fraction) (in acetone, 308.15 K): 0.264 | solubility (mole fraction) (in acetone, 313.15 K): 0.303 | solubility (mole fraction) (in acetone, 318.15 K): 0.346 | solubility (mole fraction) (in ethanol, 278.15 K): 0.0162 | solubility (mole fraction) (in ethanol, 283.15 K): 0.0192 | solubility (mole fraction) (in ethanol, 288.15 K): 0.0232 | solubility (mole fraction) (in ethanol, 293.15 K): 0.0284 | solubility (mole fraction) (in ethanol, 298.15 K): 0.0328 | solubility (mole fraction) (in ethanol, 303.15 K): 0.0382 | solubility (mole fraction) (in ethanol, 308.15 K): 0.0448 | solubility (mole fraction) (in ethanol, 313.15 K): 0.05 | solubility (mole fraction) (in ethanol, 318.15 K): 0.0572 | solubility (mole fraction) (in ethyl acetate, 278.15 K): 0.0106 | solubility (mole fraction) (in ethyl acetate, 283.15 K): 0.0128 | solubility (mole fraction) (in ethyl acetate, 288.15 K): 0.0155 | solubility (mole fraction) (in ethyl acetate, 293.15 K): 0.019 | solubility (mole fraction) (in ethyl acetate, 298.15 K): 0.0233 | solubility (mole fraction) (in ethyl acetate, 303.15 K): 0.0281 | solubility (mole fraction) (in ethyl acetate, 308.15 K): 0.0332 | solubility (mole fraction) (in ethyl acetate, 313.15 K): 0.039 | solubility (mole fraction) (in ethyl acetate, 318.15 K): 0.0448 | solubility (mole fraction) (in ethylene glycol, 278.15 K): 0.00978 | solubility (mole fraction) (in ethylene glycol, 283.15 K): 0.0106 | solubility (mole fraction) (in ethylene glycol, 288.15 K): 0.0134 | solubility (mole fraction) (in ethylene glycol, 293.15 K): 0.0163 | solubility (mole fraction) (in ethylene glycol, 298.15 K): 0.0194 | solubility (mole fraction) (in ethylene glycol, 303.15 K): 0.023 | solubility (mole fraction) (in ethylene glycol, 308.15 K): 0.0269 | solubility (mole fraction) (in ethylene glycol, 313.15 K): 0.0313 | solubility (mole fraction) (in ethylene glycol, 318.15 K): 0.0367 | solubility (mole fraction) (in isobutanol, 278.15 K): 0.0028 | solubility (mole fraction) (in isobutanol, 283.15 K): 0.00315 | solubility (mole fraction) (in isobutanol, 288.15 K): 0.0037 | solubility (mole fraction) (in isobutanol, 293.15 K): 0.00452 | solubility (mole fraction) (in isobutanol, 298.15 K): 0.00519 | solubility (mole fraction) (in isobutanol, 303.15 K): 0.00613 | solubility (mole fraction) (in isobutanol, 308.15 K): 0.00696 | solubility (mole fraction) (in isobutanol, 313.15 K): 0.00821 | solubility (mole fraction) (in isobutanol, 318.15 K): 0.00932 | solubility (mole fraction) (in isopropanol, 278.15 K): 0.0067 | solubility (mole fraction) (in isopropanol, 283.15 K): 0.00763 | solubility (mole fraction) (in isopropanol, 288.15 K): 0.00886 | solubility (mole fraction) (in isopropanol, 293.15 K): 0.0108 | solubility (mole fraction) (in isopropanol, 298.15 K): 0.0127 | solubility (mole fraction) (in isopropanol, 303.15 K): 0.0147 | solubility (mole fraction) (in isopropanol, 308.15 K): 0.0166 | solubility (mole fraction) (in isopropanol, 313.15 K): 0.0195 | solubility (mole fraction) (in isopropanol, 318.15 K): 0.0221 | solubility (mole fraction) (in methanol, 278.15 K): 0.0199 | solubility (mole fraction) (in methanol, 283.15 K): 0.0227 | solubility (mole fraction) (in methanol, 288.15 K): 0.0273 | solubility (mole fraction) (in methanol, 293.15 K): 0.0325 | solubility (mole fraction) (in methanol, 298.15 K): 0.0382 | solubility (mole fraction) (in methanol, 303.15 K): 0.0452 | solubility (mole fraction) (in methanol, 308.15 K): 0.0532 | solubility (mole fraction) (in methanol, 313.15 K): 0.0619 | solubility (mole fraction) (in methanol, 318.15 K): 0.0703 | solubility (mole fraction) (in n-butanol, 278.15 K): 0.00149 | solubility (mole fraction) (in n-butanol, 283.15 K): 0.00165 | solubility (mole fraction) (in n-butanol, 288.15 K): 0.00202 | solubility (mole fraction) (in n-butanol, 293.15 K): 0.00242 | solubility (mole fraction) (in n-butanol, 298.15 K): 0.00284 | solubility (mole fraction) (in n-butanol, 303.15 K): 0.00337 | solubility (mole fraction) (in n-butanol, 308.15 K): 0.00378 | solubility (mole fraction) (in n-butanol, 313.15 K): 0.00447 | solubility (mole fraction) (in n-butanol, 318.15 K): 0.00507 | solubility (mole fraction) (in water, 278.15 K): 0.000146 | solubility (mole fraction) (in water, 283.15 K): 0.000173 | solubility (mole fraction) (in water, 288.15 K): 0.000213 | solubility (mole fraction) (in water, 293.15 K): 0.000269 | solubility (mole fraction) (in water, 298.15 K): 0.000348 | solubility (mole fraction) (in water, 303.15 K): 0.00045 | solubility (mole fraction) (in water, 308.15 K): 0.000572 | solubility (mole fraction) (in water, 313.15 K): 0.000721 | solubility (mole fraction) (in water, 318.15 K): 0.000911
